{"source": "patent US6339069B1", "about": "“Peptide-lipid conjugates, liposomes and lipsomal drug delivery” (Elan PharmaceuticalsTechnologies, Inc., priority 1996, dated 2002)", "key": {"[1]": {"details": "pH 7.4; cited from earlier work"}, "[2]": {"target": "T1, Human leukocyte elastase (HLE) (Homo sapiens, UniProt P08246)", "T1 construct": "purchased Calbiochem (San Diego, Calif.)", "T1 sequence (P08246 30-247 limits assumed)": "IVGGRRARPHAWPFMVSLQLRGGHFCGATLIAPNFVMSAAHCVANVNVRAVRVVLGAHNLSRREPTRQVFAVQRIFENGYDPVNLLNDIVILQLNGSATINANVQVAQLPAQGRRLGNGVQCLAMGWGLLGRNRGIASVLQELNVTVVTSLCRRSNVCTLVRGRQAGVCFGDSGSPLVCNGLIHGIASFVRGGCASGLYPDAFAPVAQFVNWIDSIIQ", "assay": "Cleavage of MeO-suc-ala-ala-pro-val-DOPE by HLE (TLC, 31P-NMR)", "format": "biochemical", "details": "2 hours", "experimental": "To determine if the peptide-lipid MeO-suc-ala-ala-pro-val-DOPE (SEQ ID NO:42) is also a suitable substrate for elastase mediated cleavage 50 nmol of MeO-suc-ala-ala-pro-val-DOPE liposomes (SUVs) were incubated with 0, 2.5, 5, 10, or 20 ug HLE (from Calbiochem; 20 units/mg protein; 1 unit=amount of enzyme that will hydrolyze 1.0 umol of MeO-suc-ala-ala-pro-val-pNA per min at 25 degrees C., pH 8.0) overnight at 37 degrees C. in 50 ul volume of 10 mM TES/ 154 mM NaCl/ 0.1 mM EDTA, pH 7.4, containing 1.5 mM Ca and 1.5 mM Mg.\nLipid was extracted using the Bligh-Dyer technique (chloroform/methanol/water: 2/1.7/1), dried under nitrogen, placed under high vacuum for ˜3 hours. Samples were resuspended in 5 ul chloroform and spotted onto TLC plates. 20 ug of pure DOPE was also spotted for comparison purposes. TLC solvent system was chloroform/methanol/ammonium hydroxide (65/25/5). Plates were air dried, sprayed with molybdenate blue, then charred at 180 degrees C.\nMeO-suc-ala-ala-pro-val-DOPE liposomes were incubated with 0 or 5 ug HLE for 1, 2, 4 hours, or overnight and processed as above. The peptide was cleaved by HLE in as little as 1 hour at 37 degrees C.\nThe conversion of MeO-suc-AAPV-DOPE to DOPE (SEQ ID NO:42) was also quantitated by ^31P-NMR. […] A small shoulder that may indicate an incomplete peptide cleavage product was also observed near the original peptide-lipid peak. Treatment with 5 micrograms of elastase/100 nmol lipid yielded 20% DOPE. Longer incubation may have lead to further digestion, though multiple lamellae and/or the surface charge of the liposome may limit the ultimate amount digested. The maximum exposed peptide-lipid for intact liposomes would occur with unilamellar vesicles. Assuming only the outer leaflet peptide-lipid in unilamellar vesicles is available for digestion, the minimal percentage conversion of exposed MeO-suc-AAPV-DOPE (SEQ ID NO:42) to DOPE in the outer leaflet lipid of this preparation was 40% (FIG. 6, dotted line). If the average number of lamellae were greater than one, the percentage conversion was even higher. […]"}, "Human leukocyte elastase": {"target": "T2, Human leukocyte elastase (Homo sapiens, UniProt P08246)", "T2 construct": "purchased Calbiochem (San Diego, Calif.)", "T2 sequence (P08246 30-247 limits assumed)": "T1 sequence (P08246 30-247 limits assumed)", "assay": "Elastase-mediated cleavage of N-Ac-AA-DOPE to DOPE (TLC, HPLC)", "format": "biochemical", "details": "overnight, 37° C.", "experimental": "Cleavage of N-Ac-ala-ala-DOPE to DOPE by elastase was monitored by thin layer chromatography (TLC). The chemical structure of N-Ac-ala-ala-DOPE and its postulated scheme of conversion to DOPE by enzymatic cleavage is shown in FIG. 1. 100-200 nmol of N-Ac-AA-DOPE SUVs were incubated with 1 mg enzyme in 0.1 ml overnight at 37° C. Human leukocyte elastase was purchased from Calbiochem (San Diego, Calif.). Lipid was extracted by organic phase separation (Bligh and Dyer, 1959) twice. Collected lipid was dried under N^2 stream and exposed to vacuum for 4 hours-overnight. Samples were resuspended in chloroform and spotted onto TLC plates. […]\nElastase and proteinase K mediated cleavage of N-Ac-AA-DOPE was quantitated using liposomes composed of N-Ac-AA-DOPE and DOTAP, a positively charged lipid. […] After treatment with elastase or proteinase K the reduction in the amount of N-Ac-AA-DOPE was monitored by HPLC (FIG. 4). […]\nCollected lipid was dried under a N2 stream and exposed to vacuum for 4 hours-overnight. […] The N-Ac-AA-DOPE peak was detected using a gradient of 59-55% isopropanol:4-8% water. Flow rate was 1.5 ml/min, column temperature was set at 45° C., and peaks were detected by a UV detector set at 205 nm. Lipid peaks were quantitated in comparison to standard curves generated by injecting 5-200 nmol of DOTAP or N-Ac-AA-DOPE and monitoring 205 nm signal. […]"}, "proteinase K": {"target": "proteinase K (Parengyodontium album, UniProt P06873)", "sequence (P06873 106-384, species assumed)": "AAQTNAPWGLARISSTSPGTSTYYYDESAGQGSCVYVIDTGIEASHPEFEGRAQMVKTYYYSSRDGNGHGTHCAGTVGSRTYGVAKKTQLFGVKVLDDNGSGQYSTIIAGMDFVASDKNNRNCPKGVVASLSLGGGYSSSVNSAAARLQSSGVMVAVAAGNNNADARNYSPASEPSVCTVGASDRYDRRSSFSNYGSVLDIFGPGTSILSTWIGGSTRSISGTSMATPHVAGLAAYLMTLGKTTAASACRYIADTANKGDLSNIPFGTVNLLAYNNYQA", "assay": "Proteinase K-mediated cleavage of N-Ac-AA-DOPE (TLC, 31P-NMR, HPLC)", "format": "biochemical", "experimental": "Several proteases were tested to determine whether an enzyme with similar substrate specificity could be used as a model for elastase mediated cleavage of N-Ac-AA-DOPE. Proteinase K is a serine protease that, similarly to elastase, can cleave at peptide bonds C-terminal to aliphatic residues.\nSubsequently, proteinase K, which has a similar substrate specificity to elastase, was used to model the elastase effect because of the lower cost of the enzyme. Referring to FIG. 3, samples A and C contained pure N-acetyl-ala-ala-DOPE and pure DOPE, respectively; sample B consisted of multilamellar liposomes, prepared as described hereinbelow, composed of pure N-acetyl-ala-ala-DOPE (2 μmole total phospholipid), which were incubated in 200 μl of 154 mM NaCl, 10 mM TES, 0.1 mM EDTA at pH 7.4 and 37 ° C. for two hours in the presence of 1 mg of proteinase K. After the first incubation, another equal amount of proteinase K was added and the sample was incubated for another 2 hours. All three samples were dissolved into a final concentration of 5% deoxycholate, 50 mM EDTA and 10 mM HEPES at pH 8 for proton decoupled ^31P NMR.\nThe conversion of N-Ac-AA-DOPE to DOPE was also monitored by ^31P-NMR analysis. N-Ac-AA-DOPE LUVs were prepared and treated with or without proteinase K (1.5 mg protein/100 nmol lipid) overnight at 37° C. Samples were mixed with buffer (10% deoxycholate, 100 mM EDTA, 20 mM Hepes) and deuterium oxide (Cambridge Isotope Laboratories, Woburn, Mass.) (1:4:2) and transferred to 5 mm NMR tubes. Samples were monitored at room temperature in a Bruker AC300 spectrometer operating at 121.5 MHz, with […] 90° radio frequency pulse for proton decoupling and set to 2 sec interpulse delay to avoid signal saturation. Sweep width was set at 50 kHz. 1 Hz line broadening was applied to all spectra.\nElastase and proteinase K mediated cleavage of N-Ac-AA-DOPE was quantitated using liposomes composed of N-Ac-AA-DOPE and DOTAP, a positively charged lipid. DOTAP was included to provide a counterbalancing positive charge, and was used as a standard by which different samples could be normalized and compared. After treatment with elastase or proteinase K the reduction in the amount of N-Ac-AA-DOPE was monitored by HPLC (FIG. 4). Liposomes composed of DOTAP/N-Ac-AA-DOPE (1:1) were incubated with enzyme under given conditions. Lipid was extracted by the Bligh-Dyer procedure twice.\nCollected lipid was dried under a N2 stream and exposed to vacuum for 4 hours-overnight. Samples were resuspended in 100% ethanol and injected in 30 ul aliquots into Spherisorb silica columns (150×4.6 mm, […], Keystone Scientific). HPLC was performed using a hexane:isopropanol:water:TFA mobile phase. Hexane and TFA were held constant at 37% and 0.2%, respectively. The N-Ac-AA-DOPE peak was detected using a gradient of 59-55% isopropanol:4-8% water. Flow rate was 1.5 ml/min, column temperature was set at 45° C., and peaks were detected by a UV detector set at 205 nm. Lipid peaks were quantitated in comparison to standard curves generated by injecting 5-200 nmol of DOTAP or N-Ac-AA-DOPE and monitoring 205 nm signal. Percent cleavage was calculated by normalizing peaks to DOTAP, then determining the decrease in N-Ac-AA-DOPE peak size relative to starting amounts.\nTo verify that the cleavage of N-Ac-AA-DOPE was due to proteinase K enzymatic activity, liposomes were treated with heat inactivated proteinase K. Proteinase K was inactivated by heating at 95° C. for 1 hour, after which the enzyme was incapable of cleaving the chromogenic substrate N-Ac-AAA-pNA. […] In these experiments liposomes, prepared as described hereinbelow, were composed of 100% N-Acetyl-ala-ala-DOPE and were then extruded to approximately 0.2 microns diameter. Fifty micrograms of liposomal lipid was incubated alone or with one unit of HLE overnight at 37° C. […]"}, "S. griseus (“pronase”)": {"test_system": "S. griseus (“pronase”)", "assay": "Cleavage of N-Ac-ala-ala-DOPE by pronase (HPLC)", "format": "biochemical", "details": "DOTAP/N-acetyl-ala-ala-PE 1:1 SUVs, 100 nmole, 0.5 or 1.0 mg enzyme, overnight, 37 degrees C.", "experimental": "(§1) To compare the effect of different proteolytic enzymes on the cleavage of N-acetyl-ala-ala-DOPE, small unilamellar liposomes composed of DOTAP and N-acetyl-ala-ala-PE (1:1 molar ratio, 100 nmole), prepared as described hereinabove, were incubated overnight at 37 degrees C. with either 0.5 mg (experiment 1) or 1.0 mg (experiment 2) of: S. caespitosus protease, S. priseus (“pronase”), peptidase, chymotrypsin, trypsin, protease type I, proteinase K, or with no enzyme added.\n(§2) Subsequently, lipid was extracted from these preparations by organic phase separation, and dried under vacuum. The dried lipid was suspended in ethanol, and the resulting lipidic solution was then injected into a normal phase silica column. Analysis was by HPLC, as described above. Lipid peaks were quantitated, and the amount of lipid cleavage was calculated as a percentage of the starting lipid."}, "[3]": {"test_system": "S. caespitosus protease, peptidase, chymotrypsin, trypsin, protease type I", "assay": "Cleavage of N-Ac-ala-ala-DOPE by other proteases (HPLC)", "format": "biochemical", "details": "DOTAP/N-acetyl-ala-ala-PE 1:1 SUVs, 100 nmole, 0.5 or 1.0 mg enzyme, overnight, 37 degrees C.", "experimental": "as §1, §2"}}, "data": [{"smiles": "CCCCCCCC/C=C\\CCCCCCCC(=O)OCC(CN(C)C)OC(=O)CCCCCCC/C=C\\CCCCCCCC", "note": "(centres unmarked) [DODAP, 1-N,N-dimethylamino dioleoyl propane]", "values": [{"measurement": "DODAP population positively charged", "setting": "[1]", "value": 20, "unit": "%"}]}, {"smiles": "CCCCCCCC/C=C\\CCCCCCCC(=O)OC[C@H](COP(=O)(O)OCCNC(=O)[C@@H](NC(=O)[C@@H]1CCCN1C(=O)[C@H](C)NC(=O)[C@H](C)NC(=O)CCC(=O)OC)C(C)C)OC(=O)CCCCCCC/C=C\\CCCCCCCC", "note": "[MeO-suc-AAPV-DOPE, 1,2-Dioleoyl-sn-glycero-3-phosphoethanolamido-val-pro-ala-ala-sucMeO]", "values": [{"measurement": "DOPE yielded from MeO-suc-AAPV-DOPE (31P-NMR)", "setting": "[2]; DODAP/MeO-suc-AAPV-DOPE 1:1 vesicles, 5 micrograms of elastase/100 nmol lipid, 37° C.", "value": 20, "unit": "%"}, {"measurement": "Available peptide-lipid cleaved", "setting": "[2]; assuming approximately 2.5 lamellae per vesicle, 5 micrograms elastase/100 nmol lipid", "value": 100, "unit": "%"}, {"measurement": "Minimal percentage conversion of exposed MeO-suc-AAPV-DOPE to DOPE in the outer leaflet", "setting": "[2]; assuming unilamellar vesicles, 5 micrograms elastase/100 nmol lipid", "value": "≥ 40", "unit": "%"}]}, {"smiles": "CCCCCCCC/C=C\\CCCCCCCC(=O)OCC(COP(=O)(O)OCCNC(=O)[C@H](C)NC(=O)[C@H](C)NC(C)=O)OC(=O)CCCCCCC/C=C\\CCCCCCCC", "note": "(some centres unmarked) [N-Ac-AA-DOPE, N-acetyl-alanyl-alanyl-dioleoyl phosphatidylethanolamine]", "values": [{"measurement": "Cleavage of N-Ac-AA-DOPE by elastase (HPLC)", "setting": "Human leukocyte elastase; DOTAP/N-Ac-AA-DOPE (1:1) liposomes, 1 mg protease/100 nmol lipid", "value": "cleaved N-Ac-AA-DOPE to a similar extent"}, {"measurement": "Cleavage of N-Ac-AA-DOPE to DOPE by elastase (TLC)", "setting": "Human leukocyte elastase; N-Ac-AA-DOPE SUVs, 1 mg enzyme in 0.1 ml", "value": "generated a product corresponding to DOPE"}, {"measurement": "Cleavage of N-Ac-AA-DOPE by proteinase K (HPLC)", "setting": "proteinase K; DOTAP/N-Ac-AA-DOPE (1:1) liposomes, 1 mg protease/100 nmol lipid, overnight, 37° C.", "value": "cleaved N-Ac-AA-DOPE to a similar extent"}, {"measurement": "Cleavage of N-Ac-AA-DOPE by heat inactivated proteinase K (HPLC)", "setting": "proteinase K; DOTAP/N-Ac-AA-DOPE liposomes, proteinase K inactivated 95° C., 1 hour", "value": "did not result in any cleavage"}, {"measurement": "Cleavage of N-Ac-ala-ala-DOPE from liposomes by proteinase K (HPLC)", "setting": "proteinase K; DOTAP/N-acetyl-ala-ala-PE 1:1 SUVs, 100 nmole, 0.5 or 1.0 mg enzyme, overnight, 37 degrees C.", "value": "effected cleavage"}, {"measurement": "Conversion of N-Ac-AA-DOPE to DOPE (31P-NMR)", "setting": "proteinase K; LUVs, proteinase K 1.5 mg protease/100 nmol lipid, overnight, 37° C.", "value": "appearance of a peak 0.3 ppm upfield from N-Ac-AA-DOPE, corresponding with pure DOPE"}, {"measurement": "Cleavage of N-Ac-AA-DOPE by proteinase K (TLC)", "setting": "proteinase K; N-Ac-AA-DOPE liposomes, 1 mg enzyme/100 nmol lipid, overnight, 37° C.", "value": "the peptide-lipid was cleaved and DOPE was generated"}, {"measurement": "N-acetyl-ala-ala-DOPE converted to pure DOPE (31P NMR integration)", "setting": "proteinase K; multilamellar liposomes of pure conjugate, 1 mg proteinase K 2 hours + equal amount another 2 hours, pH 7.4, 37° C.", "value": "approximately 20%"}, {"measurement": "Cleavage of N-Ac-ala-ala-DOPE from liposomes by pronase (HPLC)", "setting": "S. griseus (“pronase”)", "value": "effected cleavage"}, {"measurement": "Cleavage of N-Ac-ala-ala-DOPE from liposomes by other proteases (HPLC)", "setting": "[3]", "value": "did not cleave"}]}]}
